US7553969B1, “Substituted phenethylamine derivatives” (Chugai Seiyaku Kabushiki Kaisha, priority 1999, dated 2009)
pIC50: −log10 of the molar value. Where a SMILES comes first, the peptide text is derived from it. [ ]: non-standard residue; d: D form. The star is where a group is joined. NMeTyr(3-tBu) = CN[C@@H](Cc1ccc(O)c(C(C)(C)C)c1)C(=O)O; Tyr(3-tBu) = CC(C)(C)c1cc(C[C@H](N)C(=O)O)ccc1O; NMePhe(4-F) = CN[C@@H](Cc1ccc(F)cc1)C(=O)O; Phe(4-F) = N[C@@H](Cc1ccc(F)cc1)C(=O)O; NMeV = CN[C@H](C(=O)O)C(C)C; NHtBu = CC(C)(C)N*; NHiPr = CC(C)N*; NHPr = CCCN*

Legend:
[1] = system: specimen of longitudinal muscle in the duodenum extracted from a rabbit (motilin-induced contraction); experiment: Action on the motilin-induced contraction of a specimen of longitudinal muscle in the duodenum extracted from a rabbit; conditions: organ bath, Krebs solution 28° C.; for Kb: Oryctolagus cuniculus, read-out: Contraction suppressing test, pA2 (converted)
Procedure: Action on the Contraction of a Specimen of Longitudinal Muscle in the Duodenum Extracted from a Rabbit
The action on the motilin-induced contraction of a specimen of longitudinal muscle in the duodenum extracted from a rabbit was investigated by the following method. A duodenum specimen (5×15 mm) extracted from a slaughtered rabbit was suspended in an organ bath (10 ml) such that the longitudinal muscle would run vertically; the bath was filled with a Krebs solution kept at 28° C. A mixed gas (95% O2 and 5% CO2) was continuously bubbled into the Krebs solution and the contraction of the duodenum specimen was recorded isotonically (with a 1-g load) via an isotonic transducer (ME-3407, ME Commercial, Tokyo, Japan). The degree of contraction was expressed in relative values, with the contraction by acetylcholine at a dose of 10^−4 M being taken as 100%. The activity of the compound was calculated as pA2 value indicating its effect on the dose-dependent muscle contraction by the motilin put into the organ bath.

motilin receptor = target: T1, motilin receptor (Oryctolagus cuniculus, UniProt G1T803); experiment: Motilin receptor binding test (125I motilin, rabbit duodenum protein sample); conditions: 125I motilin 25 pM, concentration reducing specific binding by 50%
T1 construct: homogenized in 50 mM Tris buffer to prepare a protein sample; from tissue; host or cells: rabbit duodenum homogenate (mucous membrane separated)
Procedure: Motilin receptor binding test
A motilin receptor binding test was conducted in the following manner [Vantrappen et al., Regul. Peptides, 15, 143 (1986)]. The duodenum was extracted from a slaughtered rabbit, had the mucous membrane separated and homogenized in 50 mM Tris buffer to prepare a protein sample. The protein sample was incubated together with ^125I motilin 25 pM and thereafter the radioactivity bound to the protein was measured. Specific binding was defined as the difference between the radioactivity in the case of adding a great excess amount of motilin (10^−7 M) and that in the case of no adding. The activity of the compound was expressed by IC50 (in nM), as the concentration sufficient to reduce the specific binding by 50%.

T1 sequence (G1T803 1-400): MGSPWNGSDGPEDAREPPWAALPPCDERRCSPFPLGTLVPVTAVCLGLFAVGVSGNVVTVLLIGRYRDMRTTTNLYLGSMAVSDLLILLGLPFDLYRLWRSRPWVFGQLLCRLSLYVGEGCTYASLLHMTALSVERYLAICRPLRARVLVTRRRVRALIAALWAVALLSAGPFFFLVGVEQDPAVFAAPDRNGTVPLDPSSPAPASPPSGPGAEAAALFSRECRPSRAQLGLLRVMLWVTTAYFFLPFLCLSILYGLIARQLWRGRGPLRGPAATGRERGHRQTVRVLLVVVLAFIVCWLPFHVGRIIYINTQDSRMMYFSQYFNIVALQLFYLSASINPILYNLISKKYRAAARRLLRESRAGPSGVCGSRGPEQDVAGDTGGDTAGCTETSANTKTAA

pIC50 (motilin receptor) | Compound | Kb [1] [nM] | Contraction suppressing test, pA2 [1]
8.77 | CCN[C@@H](Cc1ccc(F)cc1)C(=O)N(C)[C@H](C(=O)N(C)[C@@H](Cc1ccc(O)c(C(C)(C)C)c1)C(N)=O)C(C)C [Example 35, N-Et-Phe(4-F)-N-Me-Val-N-Me-Tyr(3-tBu)-NH2] | 1.58 | –
8.64 | CNC(=O)[C@H](Cc1ccc(O)c(C(C)(C)C)c1)N(C)C(=O)[C@H](C(C)C)N(C)C(=O)[C@@H](N)Cc1ccc(F)cc1 [Example 36, Phe(4-F)-N-Me-Val-N-Me-Tyr(3-tBu)-NHMe] (H-[Phe(4-F)]-[NMeV]-[NMeTyr(3-tBu)]-NHMe) | 1.58 | –
9.22 | CNC(=O)[C@H](Cc1ccc(O)c(C(C)(C)C)c1)N(C)C(=O)[C@H](C(C)C)N(C)C(=O)[C@H](Cc1ccc(F)cc1)NC [Example 37, N-Me-Phe(4-F)-N-Me-Val-N-Me-Tyr(3-tBu)-NHMe] (H-[NMePhe(4-F)]-[NMeV]-[NMeTyr(3-tBu)]-NHMe) | 1.58 | –
8.52 | CCN[C@@H](Cc1ccc(F)cc1)C(=O)N(C)[C@H](C(=O)N(C)[C@@H](Cc1ccc(O)c(C(C)(C)C)c1)C(=O)NC)C(C)C [Example 38, N-Et-Phe(4-F)-N-Me-Val-N-Me-Tyr(3-tBu)-NHMe] | 6.31 | –
8.70 | CCN(C(=O)[C@H](C(C)C)N(C)C(=O)[C@@H](N)Cc1ccc(F)cc1)[C@@H](Cc1ccc(O)c(C(C)(C)C)c1)C(N)=O [Example 39, Phe(4-F)-N-Me-Val-N-Et-Tyr(3-tBu)-NH2] | 2 | –
8.80 | CCN(C(=O)[C@H](C(C)C)N(C)C(=O)[C@H](Cc1ccc(F)cc1)NC)[C@@H](Cc1ccc(O)c(C(C)(C)C)c1)C(N)=O [Example 40, N-Me-Phe(4-F)-N-Me-Val-N-Et-Tyr(3-tBu)-NH2] | 2.51 | –
8.51 | CCN[C@@H](Cc1ccc(F)cc1)C(=O)N(C)[C@H](C(=O)N(CC)[C@@H](Cc1ccc(O)c(C(C)(C)C)c1)C(N)=O)C(C)C [Example 41, N-Et-Phe(4-F)-N-Me-Val-N-Et-Tyr(3-tBu)-NH2] | 3.98 | –
8.92 | CCN(C(=O)[C@H](C(C)C)N(C)C(=O)[C@@H](N)Cc1ccc(F)cc1)[C@@H](Cc1ccc(O)c(C(C)(C)C)c1)C(=O)NC [Example 42, Phe(4-F)-N-Me-Val-N-Et-Tyr(3-tBu)-NHMe] | 5.01 | –
8.72 | CCN(C(=O)[C@H](C(C)C)N(C)C(=O)[C@H](Cc1ccc(F)cc1)NC)[C@@H](Cc1ccc(O)c(C(C)(C)C)c1)C(=O)NC [Example 43, N-Me-Phe(4-F)-N-Me-Val-N-Et-Tyr(3-tBu)-NHMe] | 3.16 | –
8.44 | CCN[C@@H](Cc1ccc(F)cc1)C(=O)N(C)[C@H](C(=O)N(CC)[C@@H](Cc1ccc(O)c(C(C)(C)C)c1)C(=O)NC)C(C)C [Example 44, N-Et-Phe(4-F)-N-Me-Val-N-Et-Tyr(3-tBu)-NHMe] | 3.16 | –
9.21 | CC(C)[C@@H](C(=O)N[C@@H](Cc1ccc(O)c(C(C)(C)C)c1)C(=O)NC(C)(C)C)N(C)C(=O)[C@@H](N)Cc1ccc(F)cc1 [Example 63, Phe(4-F)-N-Me-Val-Tyr(3-tBu)-NHtBu] (H-[Phe(4-F)]-[NMeV]-[Tyr(3-tBu)]-NHtBu) | 3.98 | –
9.00 | CC(C)C(C(=O)N(C)C(Cc1ccc(O)c(C(C)(C)C)c1)C(=O)NCS(C)(=O)=O)N(C)C(=O)C(N)Cc1ccc(F)cc1 (centres unmarked) [Example 64, Phe(4-F)-N-Me-Val-N-Me-Tyr(3-tBu)-NHCH2SO2CH3] | – | 9.0
9.62 | CCNC(=O)[C@H](Cc1ccc(O)c(C(C)(C)C)c1)NC(=O)[C@H](C(C)C)N(C)C(=O)[C@@H](N)Cc1ccc(F)cc1 [Example 101, Phe(4-F)-N-Me-Val-Tyr(3-tBu)-NHEt] (H-[Phe(4-F)]-[NMeV]-[Tyr(3-tBu)]-NHEt) | 1.26 | –
9.51 | CCNC(=O)[C@H](Cc1ccc(O)c(C(C)(C)C)c1)NC(=O)[C@H](C(C)C)N(C)C(=O)[C@H](Cc1ccc(F)cc1)NC [Example 102, N-Me-Phe(4-F)-N-Me-Val-Tyr(3-tBu)-NHEt] (H-[NMePhe(4-F)]-[NMeV]-[Tyr(3-tBu)]-NHEt) | 1 | –
9.07 | CCNC(=O)[C@H](Cc1ccc(O)c(C(C)(C)C)c1)NC(=O)[C@H](C(C)C)N(C)C(=O)[C@H](Cc1ccc(F)cc1)NCC [Example 103, N-Et-Phe(4-F)-N-Me-Val-Tyr(3-tBu)-NHEt] | 1.26 | –
9.49 | CCNC(=O)[C@H](Cc1ccc(O)c(C(C)(C)C)c1)N(C)C(=O)[C@H](C(C)C)N(C)C(=O)[C@@H](N)Cc1ccc(F)cc1 [Example 104, Phe(4-F)-N-Me-Val-N-Me-Tyr(3-tBu)-NHEt] (H-[Phe(4-F)]-[NMeV]-[NMeTyr(3-tBu)]-NHEt) | 0.794 | –

pIC50 (motilin receptor) | Compound | Kb [1] [nM] | Contraction suppressing test, pA2 [1]
9.51 | CCNC(=O)[C@H](Cc1ccc(O)c(C(C)(C)C)c1)N(C)C(=O)[C@H](C(C)C)N(C)C(=O)[C@H](Cc1ccc(F)cc1)NC [Example 105, N-Me-Phe(4-F)-N-Me-Val-N-Me-Tyr(3-tBu)-NHEt] (H-[NMePhe(4-F)]-[NMeV]-[NMeTyr(3-tBu)]-NHEt) | 0.158 | –
9.21 | CCNC(=O)[C@H](Cc1ccc(O)c(C(C)(C)C)c1)N(C)C(=O)[C@H](C(C)C)N(C)C(=O)[C@H](Cc1ccc(F)cc1)NCC [Example 106, N-Et-Phe(4-F)-N-Me-Val-N-Me-Tyr(3-tBu)-NHEt] | 0.158 | –
9.41 | CCNC(=O)[C@H](Cc1ccc(O)c(C(C)(C)C)c1)N(CC)C(=O)[C@H](C(C)C)N(C)C(=O)[C@@H](N)Cc1ccc(F)cc1 [Example 107, Phe(4-F)-N-Me-Val-N-Et-Tyr(3-tBu)-NHEt] | 2 | –
9.37 | CCNC(=O)[C@H](Cc1ccc(O)c(C(C)(C)C)c1)N(CC)C(=O)[C@H](C(C)C)N(C)C(=O)[C@H](Cc1ccc(F)cc1)NC [Example 108, N-Me-Phe(4-F)-N-Me-Val-N-Et-Tyr(3-tBu)-NHEt] | 1 | –
9.77 | CCNC(=O)[C@H](Cc1ccc(O)c(C(C)(C)C)c1)N(CC)C(=O)[C@H](C(C)C)N(C)C(=O)[C@H](Cc1ccc(F)cc1)NCC [Example 109, N-Et-Phe(4-F)-N-Me-Val-N-Et-Tyr(3-tBu)-NHEt] | 2 | –
9.40 | CCCNC(=O)[C@H](Cc1ccc(O)c(C(C)(C)C)c1)NC(=O)[C@H](C(C)C)N(C)C(=O)[C@@H](N)Cc1ccc(F)cc1 [Example 119, Phe(4-F)-N-Me-Val-Tyr(3-tBu)-NH-n-Pr] (H-[Phe(4-F)]-[NMeV]-[Tyr(3-tBu)]-NHPr) | 0.398 | –
9.57 | CC(C)NC(=O)[C@H](Cc1ccc(O)c(C(C)(C)C)c1)NC(=O)[C@H](C(C)C)N(C)C(=O)[C@@H](N)Cc1ccc(F)cc1 [Example 120, Phe(4-F)-N-Me-Val-Tyr(3-tBu)-NH-i-Pr] (H-[Phe(4-F)]-[NMeV]-[Tyr(3-tBu)]-NHiPr) | 1 | –
9.39 | CC(C)[C@@H](C(=O)N(C)[C@@H](Cc1ccc(O)c(C(C)(C)C)c1)C(=O)NC1CC1)N(C)C(=O)[C@@H](N)Cc1ccc(F)cc1 [Example 121, Phe(4-F)-N-Me-Val-N-Me-Tyr(3-tBu)-NH-c-Pr] | 1.26 | –
9.33 | CC(C)[C@@H](C(=O)N[C@@H](Cc1ccc(O)c(C(C)(C)C)c1)C(=O)NCO)N(C)C(=O)[C@@H](N)Cc1ccc(F)cc1 [Example 122, Phe(4-F)-N-Me-Val-Tyr(3-tBu)-NHCH2OH] | 1 | –
9.15 | CN[C@@H](Cc1ccc(F)cc1)C(=O)N(C)[C@H](C(=O)N[C@@H](Cc1ccc(O)c(C(C)(C)C)c1)C(=O)NCO)C(C)C [Example 123, N-Me-Phe(4-F)-N-Me-Val-Tyr(3-tBu)-NHCH2OH] | 0.794 | –
9.01 | CCN[C@@H](Cc1ccc(F)cc1)C(=O)N(C)[C@H](C(=O)N[C@@H](Cc1ccc(O)c(C(C)(C)C)c1)C(=O)NCO)C(C)C [Example 124, N-Et-Phe(4-F)-N-Me-Val-Tyr(3-tBu)-NHCH2OH] | 0.794 | –
9.00 | CN[C@@H](Cc1ccc(F)cc1)C(=O)N(C)[C@H](C(=O)N(C)[C@@H](Cc1ccc(O)c(C(C)(C)C)c1)C(=O)NCO)C(C)C [Example 125, N-Me-Phe(4-F)-N-Me-Val-N-Me-Tyr(3-tBu)-NHCH2OH] | 1 | –
8.72 | CCN[C@@H](Cc1ccc(F)cc1)C(=O)N(C)[C@H](C(=O)N(C)[C@@H](Cc1ccc(O)c(C(C)(C)C)c1)C(=O)NCO)C(C)C [Example 126, N-Et-Phe(4-F)-N-Me-Val-N-Me-Tyr(3-tBu)-NHCH2OH] | 0.631 | –
8.77 | CCN(C(=O)[C@H](C(C)C)N(C)C(=O)[C@@H](N)Cc1ccc(F)cc1)[C@@H](Cc1ccc(O)c(C(C)(C)C)c1)C(=O)NCO [Example 127, Phe(4-F)-N-Me-Val-N-Et-Tyr(3-tBu)-NHCH2OH] | 2 | –
8.82 | CCN(C(=O)[C@H](C(C)C)N(C)C(=O)[C@H](Cc1ccc(F)cc1)NC)[C@@H](Cc1ccc(O)c(C(C)(C)C)c1)C(=O)NCO [Example 128, N-Me-Phe(4-F)-N-Me-Val-N-Et-Tyr(3-tBu)-NHCH2OH] | 2 | –
